5 compounds from patent US20240067693A1, “POLYPEPTIDES AND USES THEREOF” (MEDIMMUNE LIMITED, priority 2020, published 2024) can be followed below.

Assay [1] deals with T1, human amylin receptor (calcitonin receptor co-expressed with receptor activity modifying protein, RAMP3) (hAMYR3) (Homo sapiens, UniProt O60896+P30988).
T1 construct: expressed in transfected cells
T1 sequence (P30988 25-474): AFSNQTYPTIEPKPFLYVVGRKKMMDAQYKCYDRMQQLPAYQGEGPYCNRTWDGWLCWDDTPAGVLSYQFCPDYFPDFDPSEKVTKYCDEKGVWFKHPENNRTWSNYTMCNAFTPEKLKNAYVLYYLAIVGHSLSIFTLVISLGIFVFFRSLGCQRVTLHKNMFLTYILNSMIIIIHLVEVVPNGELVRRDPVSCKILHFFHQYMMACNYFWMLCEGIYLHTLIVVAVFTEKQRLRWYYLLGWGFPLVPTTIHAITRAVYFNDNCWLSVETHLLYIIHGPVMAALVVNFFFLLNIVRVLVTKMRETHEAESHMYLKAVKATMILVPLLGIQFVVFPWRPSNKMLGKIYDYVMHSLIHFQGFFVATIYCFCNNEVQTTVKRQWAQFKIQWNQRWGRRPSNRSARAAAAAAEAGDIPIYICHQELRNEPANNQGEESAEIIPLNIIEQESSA
T1 sequence (O60896 24-148 partner): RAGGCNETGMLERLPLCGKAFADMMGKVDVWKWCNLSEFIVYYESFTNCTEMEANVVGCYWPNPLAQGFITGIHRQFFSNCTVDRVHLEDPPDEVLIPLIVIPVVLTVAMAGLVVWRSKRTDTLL
Kind of assay: cAMP production in 1321N1 cells with stable recombinant expression of human amylin receptor (hAMYR3). The class given is cell-based. To be noted: for Ratio (selectivity hAMYR vs hCTR, ratio of EC50 values at the two receptors): EC50 hCTR / EC50 hAMYR3; for EC50: cAMP, 1321N1 cells, assay buffer with 0.1% BSA, read-out: EC50 (pM) hAMYR3. The procedure, abridged: (§1)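 EC50 values come from 4-parameter logistic fits of HTRF cAMP signal, normalised to maximal calcitonin or amylin effect. Peptides were tested in duplicate for 30 min at RT in IBMX-containing (0.5 mM) BSA/HEPES buffer pH 7.4 on stable 1321N1 (human CTR, AMYR3) or HEK (rat CTR, AMYR3) lines.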

For assay [2], the target named is T2, human calcitonin receptor (hCTR) (Homo sapiens, UniProt P30988).
T2 construct: expressed in transfected cells
T2 sequence (P30988 25-474): T1 sequence (P30988 25-474)
Put plainly: cAMP production in 1321N1 cells with stable recombinant expression of human calcitonin receptor (hCTR). In kind it is cell-based. To be noted: cAMP, 1321N1 cells, assay buffer with 0.1% BSA; read-out: EC50 (pM) hCTR. In outline: as §1

Numbered stars: 1 amine (or outer) side, 2 acyl side, 3 side chain; on linkers, the order of the positions; unused ones are H or OH. Bridge positions count the residues as written; N and C are the ends. Square brackets hold non-standard residues; d marks the D form. Side chains are listed from the residue outwards. Peptide text beside a SMILES is read from it. * marks the point of attachment. C20 diacid = O=C(O)CCCCCCCCCCCCCCCCCCC(=O)*; C18 diacid = O=C(O)CCCCCCCCCCCCCCCCC(=O)*; γGlu = O=C(O)[C@H](CCC(=O)[*:2])N[*:1]; Hyp = O=C(O)[C@@H]1C[C@@H](O)CN1; Aib = CC(C)(N)C(=O)O

Take `CC[C@H](C)[C@H](NC(=O)[C@@H]1CCCN1C(=O)C(C)(C)NC(=O)[C@H](Cc1ccccc1)NC(=O)[C@H](CC(N)=O)NC(=O)[C@H](CC(N)=O)NC(=O)[C@H](CO)NC(=O)[C@H](CO)NC(=O)[C@H](Cc1c[nH]cn1)NC(=O)[C@@H](NC(=O)[C@H](CC(C)C)NC(=O)[C@H](Cc1ccccc1)NC(=O)[C@H](CC(N)=O)NC(=O)[C@H](C)NC(=O)[C@H](CC(C)C)NC(=O)[C@H](CCCNC(=N)N)NC(=O)[C@H](CCC(N)=O)NC(=O)[C@@H](NC(=O)[C@H](C)NC(=O)[C@@H]1CSSC[C@H](NC(=O)[C@H](CCCCN)NC(=O)[C@@H](N)CCCCNC(=O)CC[C@H](NC(=O)CCCCCCCCCCCCCCCCC(=O)O)C(=O)O)C(=O)N[C@@H](CC(N)=O)C(=O)N[C@@H]([C@@H](C)O)C(=O)N[C@@H](C)C(=O)N[C@@H]([C@@H](C)O)C(=O)N1)[C@@H](C)O)C(C)C)C(=O)N[C@@H](CC(C)C)C(=O)N1CCC[C@H]1C(=O)N1CCC[C@H]1C(=O)N[C@H](C(=O)N[C@@H](CC(N)=O)C(=O)N[C@H](C(=O)NCC(=O)N[C@@H](CO)C(=O)N[C@@H](CC(N)=O)C(=O)N[C@H](C(=O)N[C@@H](Cc1ccc(O)cc1)C(N)=O)[C@@H](C)O)C(C)C)[C@@H](C)O` [Peptide 110, K(γE-C18diacid)K[CNTATC]ATQRLANFLVHSSNNF(Aib)PILPPTNVGSNTY-amide] (H-K([γGlu-C18 diacid])KCNTATCATQRLANFLVHSSNNF[Aib]PILPPTNVGSNTY-NH2; disulfide 3-8; N-terminus assumed): the “Ratio (selectivity hAMYR vs hCTR, ratio of EC50 values at the two receptors)” value in assay [1] came out at 3. The results for the concentration for a half-maximal effect (EC50) in assay [1] and in assay [2] were 204 pM and 541 pM, respectively.

`CC[C@H](C)[C@H](NC(=O)[C@@H]1CCCN1C(=O)CNC(=O)[C@H](Cc1ccccc1)NC(=O)[C@H](Cc1c[nH]cn1)NC(=O)[C@H](CC(N)=O)NC(=O)[C@H](CO)NC(=O)[C@H](CO)NC(=O)[C@H](Cc1c[nH]cn1)NC(=O)[C@@H](NC(=O)[C@H](CC(C)C)NC(=O)[C@H](Cc1ccccc1)NC(=O)[C@H](CC(N)=O)NC(=O)[C@H](C)NC(=O)[C@H](CC(C)C)NC(=O)[C@H](CCCNC(=N)N)NC(=O)[C@H](CCC(N)=O)NC(=O)[C@@H](NC(=O)[C@H](C)NC(=O)[C@@H]1CSSC[C@H](NC(=O)[C@H](CCCCN)NC(=O)[C@@H](N)CCCCNC(=O)CC[C@H](NC(=O)CCCCCCCCCCCCCCCCC(=O)O)C(=O)O)C(=O)N[C@@H](CC(N)=O)C(=O)N[C@@H]([C@@H](C)O)C(=O)N[C@@H](C)C(=O)N[C@@H]([C@@H](C)O)C(=O)N1)[C@@H](C)O)C(C)C)C(=O)N[C@@H](CC(C)C)C(=O)N1CCC[C@H]1C(=O)N1CCC[C@H]1C(=O)N[C@H](C(=O)N[C@@H](CC(N)=O)C(=O)N[C@H](C(=O)NCC(=O)N[C@@H](CO)C(=O)N[C@@H](CCC(=O)O)C(=O)N[C@H](C(=O)N[C@@H](Cc1ccc(O)cc1)C(N)=O)[C@@H](C)O)C(C)C)[C@@H](C)O` [Peptide 111] (H-K([γGlu-C18 diacid])KCNTATCATQRLANFLVHSSNHFGPILPPTNVGSETY-NH2; disulfide 3-8; N-terminus assumed): in assay [1], the “Ratio (selectivity hAMYR vs hCTR, ratio of EC50 values at the two receptors)” value is reported as 5 and the EC50 was 403 pM. The EC50 in assay [2] was 1880 pM.

In the case of `CC[C@H](C)[C@H](NC(=O)[C@H](CO)NC(=O)[C@H](Cc1c[nH]cn1)NC(=O)[C@@H](NC(=O)[C@H](CC(C)C)NC(=O)[C@H](Cc1ccccc1)NC(=O)[C@H](CC(N)=O)NC(=O)[C@H](C)NC(=O)[C@H](CC(C)C)NC(=O)[C@H](CCCNC(=N)N)NC(=O)[C@H](CCC(N)=O)NC(=O)[C@@H](NC(=O)[C@H](C)NC(=O)[C@@H]1CSSC[C@H](NC(=O)[C@@H](N)CCCCNC(=O)CC[C@H](NC(=O)CC[C@H](NC(=O)CCCCCCCCCCCCCCCCCCC(=O)O)C(=O)O)C(=O)O)C(=O)N[C@@H](CC(N)=O)C(=O)N[C@@H]([C@@H](C)CC)C(=O)N[C@@H](C)C(=O)N[C@@H]([C@@H](C)O)C(=O)N1)[C@@H](C)O)C(C)C)C(=O)N[C@@H](C)C(=O)N[C@@H](CC(N)=O)C(=O)N[C@@H](Cc1ccccc1)C(=O)NCC(=O)N1CCC[C@H]1C(=O)N[C@H](C(=O)N[C@@H](CC(C)C)C(=O)N1CCC[C@H]1C(=O)N1CCC[C@H]1C(=O)N[C@H](C(=O)N[C@@H](CC(N)=O)C(=O)N[C@H](C(=O)NCC(=O)N[C@@H](CO)C(=O)N[C@@H](CCCNC(=N)N)C(=O)N[C@H](C(=O)N[C@@H](Cc1ccc(O)cc1)C(N)=O)[C@@H](C)O)C(C)C)[C@@H](C)O)[C@@H](C)CC` [Peptide 118] (H-K([γGlu-γGlu-C20 diacid])CNIATCATQRLANFLVHSIANFGPILPPTNVGSRTY-NH2; disulfide 2-7; N-terminus assumed), the “Ratio (selectivity hAMYR vs hCTR, ratio of EC50 values at the two receptors)” value in assay [1] came to 2. Moreover, the EC50 in assay [1] came to 417 pM; in assay [2] it was 792 pM.

In the case of `CC[C@H](C)[C@H](NC(=O)[C@H](C)NC(=O)[C@@H]1CCCN1C(=O)[C@H](Cc1ccccc1)NC(=O)[C@H](CC(N)=O)NC(=O)[C@@H]1CCCN1C(=O)[C@@H]1CCCN1C(=O)[C@H](CO)NC(=O)[C@H](Cc1c[nH]cn1)NC(=O)[C@@H](NC(=O)[C@H](CC(C)C)NC(=O)[C@H](Cc1ccccc1)NC(=O)[C@H](CC(N)=O)NC(=O)[C@H](C)NC(=O)[C@H](CC(C)C)NC(=O)[C@H](CCCNC(=N)N)NC(=O)[C@H](CCC(N)=O)NC(=O)[C@@H](NC(=O)[C@H](C)NC(=O)[C@@H]1CSSC[C@H](NC(=O)[C@@H](N)CCCCNC(=O)CC[C@H](NC(=O)CC[C@H](NC(=O)CCCCCCCCCCCCCCCCCCC(=O)O)C(=O)O)C(=O)O)C(=O)N[C@@H](CC(N)=O)C(=O)N[C@@H]([C@@H](C)O)C(=O)N[C@@H](C)C(=O)N[C@@H]([C@@H](C)O)C(=O)N1)[C@@H](C)O)C(C)C)C(=O)N[C@@H](CC(C)C)C(=O)N[C@@H](CO)C(=O)N1CCC[C@H]1C(=O)N[C@H](C(=O)N[C@@H](CC(N)=O)C(=O)N[C@H](C(=O)NCC(=O)N[C@@H](CO)C(=O)N[C@@H](CC(N)=O)C(=O)N[C@H](C(=O)N[C@@H](Cc1ccc(O)cc1)C(N)=O)[C@@H](C)O)C(C)C)[C@@H](C)O` [Peptide 119] (H-K([γGlu-γGlu-C20 diacid])CNTATCATQRLANFLVHSPPNFPAILSPTNVGSNTY-NH2; disulfide 2-7; N-terminus assumed), in assay [1], the “Ratio (selectivity hAMYR vs hCTR, ratio of EC50 values at the two receptors)” value was determined as 24 and the EC50 was determined as 1460 pM. Moreover, the EC50 in assay [2] was determined as 34700 pM.

Take `CC[C@H](C)[C@H](NC(=O)[C@H](C)NC(=O)[C@@H]1C[C@@H](O)CN1C(=O)[C@H](Cc1ccccc1)NC(=O)[C@H](CC(N)=O)NC(=O)C(C)(C)NC(=O)[C@H](CO)NC(=O)[C@H](CO)NC(=O)[C@H](Cc1c[nH]cn1)NC(=O)[C@@H](NC(=O)[C@H](CC(C)C)NC(=O)[C@H](Cc1ccccc1)NC(=O)[C@H](CC(N)=O)NC(=O)[C@H](C)NC(=O)[C@H](CC(C)C)NC(=O)[C@H](CCCNC(=N)N)NC(=O)[C@H](CCC(N)=O)NC(=O)[C@@H](NC(=O)[C@H](C)NC(=O)[C@@H]1CSSC[C@H](NC(=O)[C@@H](N)CCCCNC(=O)CC[C@H](NC(=O)CC[C@H](NC(=O)CCCCCCCCCCCCCCCCCCC(=O)O)C(=O)O)C(=O)O)C(=O)N[C@@H](CC(N)=O)C(=O)N[C@@H]([C@@H](C)O)C(=O)N[C@@H](C)C(=O)N[C@@H]([C@@H](C)O)C(=O)N1)[C@@H](C)O)C(C)C)C(=O)N[C@@H](CC(C)C)C(=O)N[C@@H](CO)C(=O)N1CCC[C@H]1C(=O)N[C@H](C(=O)N[C@@H](CC(N)=O)C(=O)N[C@H](C(=O)NCC(=O)N[C@@H](CO)C(=O)N[C@@H](CC(N)=O)C(=O)N[C@H](C(=O)N[C@@H](Cc1ccc(O)cc1)C(N)=O)[C@@H](C)O)C(C)C)[C@@H](C)O` [Peptide 121, K(γE-γE-C20diacid)[CNTATC]ATQRLANFLVHSS(Aib)NF(Hyp)AILSPTNVGSNTY-amide] (H-K([γGlu-γGlu-C20 diacid])CNTATCATQRLANFLVHSS[Aib]NF[Hyp]AILSPTNVGSNTY-NH2; disulfide 2-7; N-terminus assumed): in assay [1], the “Ratio (selectivity hAMYR vs hCTR, ratio of EC50 values at the two receptors)” value is recorded as 5 and the EC50 worked out at 1330 pM. In addition, in assay [2], the EC50 was 6070 pM.
